Measured values as given in ChEMBL document CHEMBL3868639, “Great Therapeutic Potential of Peptidylarginine Deiminase 4 (PAD4) Inhibitors: Treatment of Rheumatoid Arthritis, Epigenetic Tools, Regulation of Pluripotency in Stem Cells, and More” (ACS Med Chem Lett, 2017).

Target: Protein-arginine deiminase type-2 (Homo sapiens, UniProt Q9Y2J8)
Experiment: Inhibition of N-terminal 6His/FLAG-tagged recombinant human PAD2 (1 to 665 residues) expressed in baculovirus infected sf9 cells using N-a-benzoyl-L-arginine ethyl ester as substrate preincubated for 30 mins followed by substrate addition after 90 mins by DTT-based fluorescence assay

Chain of Protein-arginine deiminase type-2 (Q9Y2J8 whole entry, the tested form may be a part): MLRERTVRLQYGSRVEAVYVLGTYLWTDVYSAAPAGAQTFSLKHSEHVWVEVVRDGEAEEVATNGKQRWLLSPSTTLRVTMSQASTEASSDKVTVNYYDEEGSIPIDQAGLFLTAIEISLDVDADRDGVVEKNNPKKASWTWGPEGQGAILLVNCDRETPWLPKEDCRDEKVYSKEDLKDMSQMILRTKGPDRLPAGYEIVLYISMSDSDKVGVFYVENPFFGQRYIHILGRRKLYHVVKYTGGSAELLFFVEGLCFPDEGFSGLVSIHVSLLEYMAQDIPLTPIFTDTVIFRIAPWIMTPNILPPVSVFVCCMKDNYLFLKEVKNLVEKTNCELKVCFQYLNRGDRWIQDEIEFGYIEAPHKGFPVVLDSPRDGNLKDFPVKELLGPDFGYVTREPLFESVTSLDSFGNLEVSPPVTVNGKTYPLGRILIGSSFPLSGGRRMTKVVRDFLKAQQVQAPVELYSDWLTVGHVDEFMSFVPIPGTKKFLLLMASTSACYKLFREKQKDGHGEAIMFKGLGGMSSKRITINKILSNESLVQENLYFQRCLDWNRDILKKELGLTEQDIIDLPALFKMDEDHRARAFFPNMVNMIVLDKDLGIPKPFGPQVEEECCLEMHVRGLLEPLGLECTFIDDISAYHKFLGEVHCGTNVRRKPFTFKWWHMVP

| Structure (SMILES) | IC50 [µM] |
| --- | --- |
| COc1cc(C(=O)N2CCC[C@@H](N)C2)cc2nc(-c3cc4ccccc4n3CC3CC3)n(C)c12 | 10 to 79.4 |
| COc1cc(C(=O)N2CC[C@@H](O)[C@@H](N)C2)cc2nc(-c3cc4ccccc4n3CC(F)(F)F)n(C)c12 | 10 to 79.4 |
| COc1cc(C(=O)N2CCC[C@@H](N)C2)cc2nc(-c3cc4ccccc4n3CC(F)(F)F)n(C)c12 | 10 to 79.4 |
| Cn1c(-c2cc3ccccc3n2CC2CC2)nc2cc(C(=O)N3CCC[C@@H](N)C3)ccc21 | 10 to 79.4 |
